Assay results taken from patent publication US20040002425A1, “Triketone derivatives and herbicides” (Idemitsu Kosan Co., Ltd., priority 1998, published 2004).

Test system: Transplanted paddy rice plant
Test: Biological Test 1 (treatment on the 3rd day after transplantation): chemical injury to paddy rice
Format: in vivo
Design: scale not given here
Conditions: Treatment performed 3 days after transplantation
Experimental: (1) Preparation of Herbicide
Talc (57 parts by weight) and bentonite (40 parts by weight), both serving as carriers, and sodium alkylbenzenesulfate (3 parts by weight) serving as a surfactant were homogeneously ground and mixed to thereby obtain a carrier for water-dispersible powder.
Subsequently, to the water-dispersible powder (90 parts by weight), the triketone derivative (compound No. A-1) produced in Example I-1 (10 parts by weight) was added, and the resultant mixture was homogeneously ground and mixed to thereby obtain a herbicide.
(i) Biological Test 1 (Soaking in Water/Treatment on the 3rd Day After Transplantation)
A Wagner pot (1/2000 are) was filled with paddy soil, and seeds of barnyard grass were planted on the surface layer of the soil, and further, rice seedlings grown to the 2.5-leaf stage were transplanted.
Subsequently, water was poured in the pot to a height of 3 cm above the soil surface, and placed in a greenhouse where the temperature was maintained at 20-25° C., to thereby grow the plant under suitable conditions.
On the 3rd day after transplantation, the herbicide prepared in (1) above was applied to the plant in a predetermined amount. On the 30th day after treatment with the herbicide, weed-killing ratio, herbicidal effect, and extent of chemical injury to paddy rice were examined.
In Biological tests 1 and 2, herbicidal effect and extent of chemical injury were evaluated according to the below-described standards.
3) Chemical Injury to Paddy Rice
Chemical injury to paddy rice was evaluated according to the following criteria.

[1] = dose 100 g/ha, examined on the 30th day after treatment
[2] = dose 200 g/ha, examined on the 30th day after treatment

Structure (SMILES): CO/N=C1\CCS(=O)(=O)c2c(C)cc(C(=O)C3=C(Cl)CCCC3=O)c(C)c21 [B-54]
- Chemical injury, Transplanted paddy rice plant (dose 100 g/ha): 1
- Chemical injury, Transplanted paddy rice plant (dose 200 g/ha): 4

Structure (SMILES): CO/N=C1\CCS(=O)(=O)c2c(C)cc(C(=O)C3=C(N(C)C)CCCC3=O)c(C)c21 [B-55, 4-methoxyimino-5,8-dimethyl-6-(3-dimethylamino-1-oxocyclohexan-2-yl)carbonylthiochroman-1,1-1,1-dioxide]
- Chemical injury, Transplanted paddy rice plant (dose 100 g/ha): 0
- Chemical injury, Transplanted paddy rice plant (dose 200 g/ha): 0

Structure (SMILES): CO/N=C1\CCS(=O)(=O)c2c(C)cc(C(=O)C3=C(N(C)OC)CCCC3=O)c(C)c21 [B-57, 4-methoxyimino-5,8-dimethyl-6-[3-(N-methoxymethyl)amino-1-oxocyclohexan-2-yl]carbonylthiochroman-1,1-1,1-dioxide]
- Chemical injury, Transplanted paddy rice plant (dose 100 g/ha): 0
- Chemical injury, Transplanted paddy rice plant (dose 200 g/ha): 3

Structure (SMILES): CO/N=C1\CCS(=O)(=O)c2c(C)cc(C(=O)C3=C(Nc4ccc(C)cc4)CCCC3=O)c(C)c21 [B-58, 4-methoxyimino-5,8-dimethyl-6-[3-(4-methylphenyl)amino-1-oxocyclohexan-2-yl]carbonylthiochroman-1,1-1,1-dioxide]
- Chemical injury, Transplanted paddy rice plant (dose 100 g/ha): 0
- Chemical injury, Transplanted paddy rice plant (dose 200 g/ha): 0

Structure (SMILES): CO/N=C1\CCS(=O)(=O)c2c(C)cc(C(=O)C3=C(Sc4ccc(C)cc4)CCCC3=O)c(C)c21 [B-59, 4-methoxyimino-5,8-dimethyl-6-[3-(4-methylphenyl)thio-1-oxocyclohexan-2-yl]carbonylthiochroman-1,1-1,1-dioxide]
- Chemical injury, Transplanted paddy rice plant (dose 100 g/ha): 0
- Chemical injury, Transplanted paddy rice plant (dose 200 g/ha): 0

Structure (SMILES): CO/N=C1\CCS(=O)(=O)c2c(C)cc(C(=O)C3=C(S(=O)(=O)c4ccc(C)cc4)CCCC3=O)c(C)c21 [B-60, 4-methoxyimino-5,8-dimethyl-6-[3-(4-methylphenyl)sulfonyl-1-oxocyclohexan-2-yl]carbonylthiochroman-1,1-1,1-dioxide]
- Chemical injury, Transplanted paddy rice plant (dose 100 g/ha): 0
- Chemical injury, Transplanted paddy rice plant (dose 200 g/ha): 0

Structure (SMILES): CCCSC1=C(C(=O)c2cc(C)c3c(c2C)/C(=N/OC)CCS3(=O)=O)C(=O)CCC1 [B-61, 4-methoxyimino-5,8-dimethyl-6-[3-(3-propyl)thio-1-oxocyclohexan-2-yl)carbonylthiochroman-1,1-1,1-dioxide]
- Chemical injury, Transplanted paddy rice plant (dose 100 g/ha): 0
- Chemical injury, Transplanted paddy rice plant (dose 200 g/ha): 0

Structure (SMILES): CCCS(=O)(=O)C1=C(C(=O)c2cc(C)c3c(c2C)/C(=N/OC)CCS3(=O)=O)C(=O)CCC1 [B-62, 4-methoxyimino-5,8-dimethyl-6-[3-(3-propyl)sulfonyl-1-oxocyclohexan-2-yl]carbonylthiochroman-1,1-1,1-dioxide]
- Chemical injury, Transplanted paddy rice plant (dose 100 g/ha): 0
- Chemical injury, Transplanted paddy rice plant (dose 200 g/ha): 0

Structure (SMILES): Cc1c(C(=O)C2=C(Cl)CCCC2=O)ccc2c1C(=O)C(C)(C)CS2(=O)=O [B-63]
- Chemical injury, Transplanted paddy rice plant (dose 100 g/ha): 3
- Chemical injury, Transplanted paddy rice plant (dose 200 g/ha): 5

Structure (SMILES): Cc1c(C(=O)C2=C(Sc3ccc(Cl)cc3)CCCC2=O)ccc2c1C(=O)C(C)(C)CS2(=O)=O [B-64, 3,3,5-trimethyl-6-[3-(4-chloro)thio-1-oxocyclohexan-2-yl]carbonylthiochroman-4-one-1,1-dioxide]
- Chemical injury, Transplanted paddy rice plant (dose 100 g/ha): 2
- Chemical injury, Transplanted paddy rice plant (dose 200 g/ha): 5

Structure (SMILES): Cc1c(C(=O)C2=C(S(=O)(=O)c3ccc(Cl)cc3)CCCC2=O)ccc2c1C(=O)C(C)(C)CS2(=O)=O [B-65]
- Chemical injury, Transplanted paddy rice plant (dose 100 g/ha): 3
- Chemical injury, Transplanted paddy rice plant (dose 200 g/ha): 4

Structure (SMILES): Cc1cc(C(=O)C2=C(Cl)CCCC2=O)c(C)c2c1S(=O)(=O)CCC2OC(C)C (stereo not drawn) [B-66]
- Chemical injury, Transplanted paddy rice plant (dose 100 g/ha): 0
- Chemical injury, Transplanted paddy rice plant (dose 200 g/ha): 4

Structure (SMILES): CSC1=C(C(=O)c2cc(C)c3c(c2C)C(OC(C)C)CCS3(=O)=O)C(=O)CCC1 (stereo not drawn) [B-67]
- Chemical injury, Transplanted paddy rice plant (dose 100 g/ha): 0
- Chemical injury, Transplanted paddy rice plant (dose 200 g/ha): 1

Structure (SMILES): Cc1cc(C(=O)C2=C(Sc3ccccc3)CCCC2=O)c(C)c2c1S(=O)(=O)CCC2OC(C)C (stereo not drawn) [B-68, 4-(2-propyl)oxy-5,8-dimethyl-6-(3-phenylthio-1-oxocyclohexan-2-yl)carbonylthiochroman-1,1-dioxide]
- Chemical injury, Transplanted paddy rice plant (dose 100 g/ha): 0
- Chemical injury, Transplanted paddy rice plant (dose 200 g/ha): 0

Structure (SMILES): Cc1cc(C(=O)C2=C(S(C)(=O)=O)CCCC2=O)c(C)c2c1S(=O)(=O)CCC2OC(C)C (stereo not drawn) [B-69]
- Chemical injury, Transplanted paddy rice plant (dose 100 g/ha): 0
- Chemical injury, Transplanted paddy rice plant (dose 200 g/ha): 1

Structure (SMILES): Cc1cc(C(=O)C2=C(SCc3ccccc3)CCCC2=O)c(C)c2c1S(=O)(=O)CCC2OC(C)C (stereo not drawn) [B-70]
- Chemical injury, Transplanted paddy rice plant (dose 100 g/ha): 0
- Chemical injury, Transplanted paddy rice plant (dose 200 g/ha): 0

Structure (SMILES): Cc1cc(C(=O)C2=C(S(=O)(=O)Cc3ccccc3)CCCC2=O)c(C)c2c1S(=O)(=O)CCC2OC(C)C (stereo not drawn) [B-71]
- Chemical injury, Transplanted paddy rice plant (dose 100 g/ha): 0
- Chemical injury, Transplanted paddy rice plant (dose 200 g/ha): 1

Structure (SMILES): CO/N=C1\CCS(=O)(=O)c2ccc(C(=O)C3=C(Cl)CCCC3=O)c(C)c21 [B-72]
- Chemical injury, Transplanted paddy rice plant (dose 100 g/ha): 0
- Chemical injury, Transplanted paddy rice plant (dose 200 g/ha): 0

Structure (SMILES): CO/N=C1\CCS(=O)(=O)c2ccc(C(=O)C3=C(SC)CCCC3=O)c(C)c21 [B-73]
- Chemical injury, Transplanted paddy rice plant (dose 100 g/ha): 0
- Chemical injury, Transplanted paddy rice plant (dose 200 g/ha): 0

Structure (SMILES): CO/N=C1\CCS(=O)(=O)c2ccc(C(=O)C3=C(Sc4ccccc4)CCCC3=O)c(C)c21 [B-74, 4-methoxyimino-5-methyl-6-(3-phenylthio-1-oxocyclohexan-2-yl)carbonylthiochroman-1,1-dioxide]
- Chemical injury, Transplanted paddy rice plant (dose 100 g/ha): 0
- Chemical injury, Transplanted paddy rice plant (dose 200 g/ha): 0

Structure (SMILES): CO/N=C1\CCS(=O)(=O)c2ccc(C(=O)C3=C(S(=O)(=O)c4ccccc4)CCCC3=O)c(C)c21 [B-75]
- Chemical injury, Transplanted paddy rice plant (dose 100 g/ha): 0
- Chemical injury, Transplanted paddy rice plant (dose 200 g/ha): 1

Structure (SMILES): CO/N=C1\CCS(=O)(=O)c2ccc(C(=O)C3=C(N(C)OC)CCCC3=O)c(C)c21 [B-76, 4-methoxyimino-5-methyl-6-[3-(N-methoxymethyl)amino-1-oxocyclohexan-2-yl]carbonylthiochroman-1,1-dioxide]
- Chemical injury, Transplanted paddy rice plant (dose 100 g/ha): 0
- Chemical injury, Transplanted paddy rice plant (dose 200 g/ha): 1

Structure (SMILES): O=C1CCCC(Cl)=C1C(=O)c1ccc2c(c1Cl)CCCS2(=O)=O [B-77]
- Chemical injury, Transplanted paddy rice plant (dose 100 g/ha): 0
- Chemical injury, Transplanted paddy rice plant (dose 200 g/ha): 0

Structure (SMILES): O=C1CCCC(Sc2ccccc2)=C1C(=O)c1ccc2c(c1Cl)CCCS2(=O)=O [B-78]
- Chemical injury, Transplanted paddy rice plant (dose 100 g/ha): 0
- Chemical injury, Transplanted paddy rice plant (dose 200 g/ha): 0

Structure (SMILES): CSC1=C(C(=O)c2ccc3c(c2Cl)CCCS3(=O)=O)C(=O)CCC1 [B-79]
- Chemical injury, Transplanted paddy rice plant (dose 100 g/ha): 0
- Chemical injury, Transplanted paddy rice plant (dose 200 g/ha): 0

Structure (SMILES): CS(=O)(=O)C1=C(C(=O)c2ccc3c(c2Cl)CCCS3(=O)=O)C(=O)CCC1 [B-80]
- Chemical injury, Transplanted paddy rice plant (dose 100 g/ha): 0
- Chemical injury, Transplanted paddy rice plant (dose 200 g/ha): 0

Structure (SMILES): O=C1CCCC(O)=C1C(=O)c1cc2c(cc1[N+](=O)[O-])OCO2 [Comparative Example I-1, reference compound]
- Chemical injury, Transplanted paddy rice plant [1]: 3
- Chemical injury, Transplanted paddy rice plant [2]: 4

Structure (SMILES): O=C1CCCC(O)=C1C(=O)c1cccc2c1OCCO2 [Comparative Example I-2, reference compound]
- Chemical injury, Transplanted paddy rice plant [1]: 0
- Chemical injury, Transplanted paddy rice plant [2]: 0

Structure (SMILES): Cc1cc(C(=O)C2=C(O)CCCC2=O)c(C)c2c1S(=O)(=O)CC2C (stereo not drawn) [Comparative Example I-3, reference compound]
- Chemical injury, Transplanted paddy rice plant [1]: 3
- Chemical injury, Transplanted paddy rice plant [2]: 4

Structure (SMILES): Cc1cc(C(=O)C2=C(O)CCCC2=O)c(C)c2c1S(=O)(=O)C(C)C2 (stereo not drawn) [Comparative Example I-4, reference compound]
- Chemical injury, Transplanted paddy rice plant [1]: 2
- Chemical injury, Transplanted paddy rice plant [2]: 4
